Holding throughout (assay): NCI-60 cell line screen, 48 h
In experiment [1] the test system is SF-539 CNS.
Experiment [2] deals with UACC-62 melanoma.
Experiment [3] relates to COLO 205 colon.
The subject of experiment [4] is ACHN renal.
Experiment [5] concerns CAKI-1 renal.
Experiment [6] relates to U251 CNS.
In experiment [7] the test system is OVCAR-5 ovarian.
Experiment [8] deals with SNB-19 CNS.
For experiment [9], the system named is NCI/ADR-RES ovarian.
For experiment [10], the system named is HS 578T breast.

Drawing on PubChem BioAssay (NCI), this text covers TGI and GI50 for 27 molecules.

Where “and” joins values, the source holds several entries; their conditions need not be identical. Equal entries are not always repeated.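 Assay format: 96-well plates, 48-hour exposure. GI50: concentration for 50% inhibition of growth. TGI: concentration producing complete growth inhibition.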 Where only a bound is given, the exact number is not on record here.

On to `Cc1cc2c(cc1C)[n+](=O)c(C(=O)/C=C/c1ccccc1Cl)c(C)n2[O-]`, for which the TGI in [1] is 42.6 µM; in [2], 35.1 µM; in experiment [3], 36.9 µM; in experiment [4] it was 58.1 µM; in experiment [5], 43.2 µM; in [6] it was 84.4 µM. Also, the TGI in [7] and in [8] was greater than 100 µM throughout.
As to `C[n+]1ccc(-c2c3nc(c(-c4ccc5c(ccc[n+]5C)c4)c4ccc([nH]4)c(-c4cc[n+](C)cc4)c4nc(c(-c5ccc6c(ccc[n+]6C)c5)c5ccc2[nH]5)C=C4)C=C3)cc1`, the GI50 is greater than 50 µM in [2]; 23.1 µM in [3]; 27.9 µM in experiment [4]; greater than 50 µM in experiment [5]; greater than 50 µM in experiment [9]; 42.4 µM in experiment [10]. In addition, the figures for the GI50 in experiment [6], in experiment [7] and in experiment [8] were 28.8 µM, greater than 50 µM and 24.2 µM, respectively. Besides, the TGI in [2], in experiment [3], in experiment [4], in experiment [5], in [9] and in experiment [10] was greater than 50 µM throughout. Moreover, the TGI in experiment [6], in experiment [7] and in experiment [8] was greater than 50 µM throughout.
Take `COC(=O)c1ccc(C2SCC(=O)N2NC(=O)C(O)c2ccccc2)cc1` (stereo unspecified): the GI50 in experiment [1], in experiment [2], in experiment [3], in experiment [4], in [5] and in [10] was greater than 100 µM throughout. Moreover, the GI50 in experiment [6], in experiment [7] and in experiment [8] was greater than 100 µM in each case. The TGI in experiment [1], in experiment [2], in experiment [3], in [4], in [5] and in experiment [10] was greater than 100 µM in each case. The TGI in experiment [6], in [7] and in [8] was greater than 100 µM throughout.
For the molecule `O=C(O)C1OC(Oc2cc(O)c3c(=O)cc(-c4ccc(O)cc4)oc3c2)C(O)C(O)C1O` (stereo unspecified), the TGI in experiment [1], in experiment [3], in [4], in experiment [5], in experiment [6] and in experiment [7] was greater than 100 µM each time. Also, the TGI in [8] was greater than 100 µM.
Turning to `COc1cc(-c2cc(CCC(=O)Nc3ccccc3[N+](=O)[O-])n(-c3ccc([N+](=O)[O-])cc3[N+](=O)[O-])n2)ccc1O`, the GI50 in [1] was greater than 100 µM; in [2] it was greater than 10 µM; in experiment [3], greater than 100 µM; in experiment [4], greater than 10 µM; in [5], greater than 100 µM; in experiment [6], greater than 100 µM. Besides, the GI50 in experiment [7] and in experiment [8] was greater than 100 µM in each case. Further, the TGI in experiment [1], in [2], in experiment [3], in experiment [4], in [5] and in [6] was greater than 100 µM throughout. Further, the TGI in experiment [7] and in experiment [8] was greater than 100 µM throughout.
Turning to `Cc1cccc(NC(=O)CC#N)c1Cl`, the TGI in [1], in experiment [2], in [4], in experiment [5], in [6] and in [8] was greater than 100 µM each time.
With `N#CC1=C(c2ccccc2)C(O)(c2ccccc2)NC1=O` (stereo unspecified), the TGI in [1] is 63.3 µM; in experiment [2] it was greater than 100 µM; in experiment [3], greater than 100 µM; in [4], greater than 100 µM; in [5] it was greater than 100 µM; in [6], greater than 100 µM. Besides, the TGI in [7] was 90.1 µM.
`Cc1nc2cc(N)c(Cl)cc2[nH]1`: the TGI in experiment [2], in experiment [3], in experiment [4], in experiment [5], in [9] and in experiment [10] was greater than 100 µM each time. Moreover, the TGI in experiment [6], in experiment [7] and in experiment [8] was greater than 100 µM throughout.
Consider `Oc1cc2c(cc1O)-c1[nH]ncc1CC2`, for which the TGI was greater than 100 µM in experiment [1]; 90.4 µM in experiment [2]; 66.5 µM in experiment [3]; greater than 100 µM in experiment [4]; greater than 100 µM in experiment [5]; 44.6 µM in experiment [6]. Besides, the TGI in experiment [7] and in experiment [8] was greater than 100 µM each time.
On to `CC(C)CC(=O)NS(=O)(=O)c1ccccc1`, for which the TGI in [1], in experiment [2], in [3], in [4], in experiment [5] and in experiment [6] was greater than 100 µM each time. For the same molecule, the TGI in [7] and in experiment [8] was greater than 100 µM in each case.
For `O=C([O-])c1ccccc1Nc1ccccc1[O-].[Ni+3].[OH3+].[OH3+].[OH3+]`, the GI50 in experiment [1], in experiment [2], in experiment [3], in experiment [4], in experiment [5] and in [6] was greater than 100 µM in each case. Besides, the GI50 in experiment [7] and in experiment [8] was greater than 100 µM throughout. The TGI in [1], in experiment [2], in experiment [3], in experiment [4], in experiment [5] and in [6] was greater than 100 µM in each case. In addition, the TGI in [7] and in experiment [8] was greater than 100 µM throughout.
As to `O=C(c1ccc2c3c(ccc(C(=O)C(F)(F)F)c13)CC2)C(F)(F)F`, the TGI in experiment [1] is greater than 100 µM; in experiment [2], greater than 100 µM; in experiment [3] it was 44.1 µM; in experiment [4], greater than 100 µM; in experiment [5], greater than 100 µM; in experiment [6] it was greater than 100 µM. For the same molecule, the TGI in experiment [7] and in [8] was greater than 100 µM in each case.
As for `CC(Oc1ccc2cc(C(=O)c3ccccc3)c(=O)oc2c1)C(=O)O` (stereo unspecified), the TGI in [1], in experiment [2], in experiment [3], in [4], in experiment [5] and in experiment [6] was greater than 100 µM in each case. In [8], the TGI was greater than 100 µM.
`ClC[Si]12OCCN(CCO1)CCO2`: the TGI in experiment [1], in experiment [2], in experiment [3], in experiment [4], in [5] and in [6] was greater than 100 µM in each case. The TGI in [7] and in experiment [8] was greater than 100 µM in each case.
As for `CC1(C)OC(=O)C(=C2CC(c3ccccc3)c3ccccc32)C(=O)O1` (stereo unspecified), the TGI in experiment [1], in experiment [3], in experiment [4], in experiment [5], in experiment [6] and in experiment [7] was greater than 100 µM throughout. In addition, in experiment [8], the TGI was greater than 100 µM.
Regarding `C=C1C(=O)OC2/C=C(\C)C3OC3/C=C(/C(=O)OC)C(OC(C)=O)C(OC(=O)C(C)(O)C(C)OC(C)=O)C12` (stereo unspecified), the TGI in experiment [1] turned out to be 5.43 µM; in experiment [2], 4.55 µM; in experiment [3], 8.97 µM; in [4], 18.2 µM; in [5], 16.3 µM; in experiment [10], 29.7 µM. For the same molecule, the figures for the TGI in experiment [6], in experiment [7] and in experiment [8] were 10.3 µM, 10.7 µM and 29.1 µM, respectively.
Regarding `COc1ccc(/C(C)=N/NC(N)=S)c(OC)c1`, the TGI in [1], in experiment [2], in experiment [3], in [4], in experiment [5] and in experiment [6] was greater than 100 µM throughout. The TGI in [7] and in [8] was greater than 100 µM in each case.
With `O=C1C(N2C(=O)c3ccccc3C2=O)CN1C(COCc1ccccc1)c1ccc(OCc2ccccc2)cc1` (stereo unspecified), the TGI in experiment [1], in [2], in [3], in experiment [4], in experiment [5] and in experiment [6] was greater than 100 µM in each case. Besides, the TGI in experiment [7] and in [8] was greater than 100 µM throughout.
With `CN(C)/C(N)=N/C(N)=S`, the TGI in [1], in experiment [2], in experiment [3], in experiment [4], in experiment [5] and in [6] was greater than 100 µM each time. Further, the TGI in [7] and in experiment [8] was greater than 100 µM in each case.
As to `O=C1OC2C(O)C(=O)OC2C1O` (stereo unspecified), the TGI in experiment [1], in experiment [2], in experiment [3], in [4], in [5] and in experiment [9] was greater than 100 µM throughout. In addition, the TGI in experiment [6], in experiment [7] and in experiment [8] was greater than 100 µM throughout.
`CCC(/C(=N\Nc1c(Cl)cc(Cl)cc1Cl)c1ccccc1)n1ccnc1C` (stereo unspecified): the TGI in experiment [1] came to 31.1 µM; in experiment [2], 36.7 µM; in experiment [3], 24.1 µM; in experiment [4] it was 19.5 µM; in [5] it was 25.8 µM; in experiment [6], 28.4 µM. In addition, the TGI in experiment [7] worked out at 21.2 µM; in [8], 28.5 µM.
In the case of `CC1=C(c2cc(C(=O)Nc3nccs3)nc(NC#N)n2)Sc2ccccc2N1`, the TGI in [1], in experiment [2], in [3], in experiment [4], in experiment [5] and in experiment [6] was greater than 100 µM each time. In addition, the TGI in experiment [7] and in experiment [8] was greater than 100 µM throughout.
In the case of `COc1ccc(C(=O)O)c(Cc2ccc3ccccc3c2)c1`, the TGI in [1], in [2], in [3], in experiment [4], in [5] and in experiment [6] was greater than 100 µM in each case. Also, the TGI in [7] and in [8] was greater than 100 µM throughout.
Take `CC(=O)OCC1OC(n2c(-c3ccccc3)c(C)c(C)c(C#N)c2=S)C(OC(C)=O)C(OC(C)=O)C1OC(C)=O` (stereo unspecified): the GI50 in experiment [1] was 14.4 µM and > 100 µM; in experiment [4], 26.8 µM and > 100 µM; in experiment [8], 17.9 µM and 44.9 µM. The TGI is 36.8 µM and > 100 µM in experiment [1]; > 50 µM and 43.5 µM in experiment [2]; greater than 100 µM in [3]; greater than 100 µM in [4]; greater than 50 µM in experiment [5]; greater than 100 µM in experiment [9]. In addition, the TGI was 34.6 µM in [6], greater than 100 µM in experiment [7] and greater than 100 µM in experiment [8].
As to `COc1ccc(Cn2c(Br)c3c(c2-c2cc(OC)c(OC)c(OC)c2)CCc2sc(NC(C)=O)nc2-3)cc1`, the GI50 in experiment [1] was 2.41 µM; in experiment [2], 4.29 µM; in experiment [3], 2.53 µM; in experiment [4], 5.27 µM; in experiment [5], 4.21 µM; in experiment [9] it was 4.97 µM. The GI50 is 3.69 µM in experiment [6], 4.39 µM in experiment [7] and greater than 100 µM in [8]. The TGI in experiment [1] is 6.79 µM; in experiment [2] it was greater than 100 µM; in experiment [3], 5.78 µM; in experiment [4] it was 26.9 µM; in experiment [5], greater than 100 µM; in experiment [9], greater than 100 µM. The TGI in experiment [6], in experiment [7] and in experiment [8] was greater than 100 µM throughout.
As for `CC(=O)OCC1OC(Sc2ccccn2)C=CC1OC(C)=O` (stereo unspecified), the TGI in experiment [1], in experiment [2], in experiment [3], in experiment [4], in experiment [6] and in [7] was greater than 100 µM throughout. In experiment [8], the TGI was greater than 100 µM.
In the case of `CC(O[Si](C)(C)C)C1C=CC(C)n2c(=O)n(-c3ccccc3)c(=O)n21` (stereo unspecified), the TGI in experiment [1], in [2], in [3], in experiment [5], in experiment [6] and in experiment [7] was greater than 100 µM throughout. Besides, the TGI in [8] was greater than 100 µM.
